In patent US20260258050A1, “IMMUNOMODULATOR” (HITGEN INC., priority 2023, published 2026) one finds IC50 data, which are given here for 34 molecules.

Each structure is given as a SMILES string.

For the assay, the target named is T1, Human IL-17A (Homo sapiens, UniProt Q16552).
T1 sequence (Q16552 20-155 limits assumed): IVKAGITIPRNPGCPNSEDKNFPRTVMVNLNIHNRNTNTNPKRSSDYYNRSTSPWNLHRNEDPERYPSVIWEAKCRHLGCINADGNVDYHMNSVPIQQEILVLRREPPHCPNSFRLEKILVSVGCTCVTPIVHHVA
In words: IL-17A enzyme-linked immunosorbent assay (competitive ELISA, IL-17A/IL-17Ra receptor-ligand binding). Conditions: human IL-17A coated plate, human IL-17Ra, read-out: IC50, inhibitory activity of compounds on human IL-17A. Also noted: purchased Sino Biological Inc. 12047-H07B. The protocol: Experimental Example 1 IL-17A Enzyme-Linked Immunosorbent Assay (ELISA)
The inhibitory effects of human IL-17A inhibitors on receptor-ligand binding were quantitatively determined by a competitive enzyme-linked immunosorbent assay (ELISA). The ELISA was performed through the following steps.
Human IL-17A (Sino Biological Inc., Cat #12047-H07B) was diluted with coating buffer (50 mM phosphate-buffered saline (PBS), pH 7.4) to give an IL-17A concentration of 0.2 μg/ml. 100 μL of the resulting solution was added to each well of a 96-well plate, and the plate was incubated at 37° C. for 30 min. In a blank group, 100 100 μL of the coating buffer was added instead of the IL-17A solution.
The plate was washed four times with 10 mM phosphate-buffered saline containing 0.05% Tween-20 (PBST, pH 7.4). 200 μL of PBST was used per well for each wash. After the final wash, the plate was tapped dry on absorbent paper.
Fresh 5% (w/v) skim milk solution was prepared before the experiment. For example, 5 g of skim milk powder (Bio-Rad, 170-6404) was completely dissolved in 100 mL of 10 mM PBST. 200 μL of the 5% (w/v) skim milk solution was added to each well, and the plate was incubated on a shaker at 25° C. for 30 min.
(S4) Preparation of 100× to-be-Tested Compound Solutions
During step (S3), the to-be-tested compound solutions were prepared, respectively. Each powdered compound was dissolved in dimethyl sulfoxide (DMSO) to reach a storage concentration of 10 mM. The to-be-tested compound solutions were then serially diluted four-fold with DMSO to obtain nine storage concentrations ranging from […].
(S6) Pre-incubation of IL-17A with to-be-tested compound solutions
89 μL of PBST and 1 μL of each of the to-be-tested compound solutions were added to each well and mixed. The plate was pre-incubated at 25° C. for 10 min. In the blank group and the control group, 1 μL of DMSO was added instead of the to-be-tested compound solutions.
(S7) Incubation with Human Interleukin-17 Receptor a (IL-17Ra)
10 μL of 16 nM human IL-17Ra (Sino Biological Inc., Cat #10895-H03H) was added, followed by incubation on a shaker at 25° C. for 30 min. The receptor solution was prepared in 10 mM PBST.
(S9) Incubation with Horseradish Peroxidase-Conjugated Antibody
100 μL of mouse anti-Fc tag horseradish peroxidase (HRP)-conjugated antibody (Sino Biological Inc., Cat #10702-MM01T-H) was added to each well. The plate was incubated on a shaker at 25° C. for 30 min. The antibody was diluted with 5% (w/v) skim milk solution at 1:5,000 (v/v).
100 μL of 3,3′,5,5′-tetramethylbenzidine (TMB) substrate solution (BD, Cat #555214) was added to each well. Substrate A and substrate B were freshly mixed at a volume ratio of 1:1 before use. The plate was incubated in the dark at 25° C. for 5-15 min.
(S12) Termination and Detection
The color reaction was terminated by addition of 2.5 M hydrochloric acid (HCl). Absorbance was measured at 450 nm using a BMG PHERStar microplate reader.
(S13) Calculation of Half-Maximal Inhibitory Concentration (IC50)
The relative percent residual activity at each compound concentration was calculated according to Equation 1. The IC50 value of each test compound was then calculated in GraphPad 6 using the equation for log(inhibitor) versus normalized response with variable slope, as shown in Equation 2.
relative percent residual activity (%)=[(absorbance of sample−absorbance of blank group)/(absorbance of control group−absorbance of blank group)]%. Equation 1: […]
The compounds prepared in the above examples were tested for IL-17A inhibitory activity according to the above method.
On the technique in general: ELISA stands for enzyme-linked immunosorbent assay.
Regarding `Cc1[nH]nc2c1-c1cnc(NC(=O)[C@@H](NC(=O)OC3CCC3)C(C3CC3)C3CC3)cc1COCC2` [compound 247], the concentration for half-maximal inhibition (IC50) (in general, the point on the concentration scale where inhibition reaches its midpoint) was 50 to 150 nM. For `Cn1nccc1C(=O)N[C@H](C(=O)Nc1cc2c(cc1Cl)-c1c[nH]nc1CCOC2)C(C1CC1)C1CC1` [compound 31] the value was 150 to 1000 nM.

On to `CCn1nccc1C(=O)N[C@H](C(=O)Nc1cc2c(cc1F)-c1c(n[nH]c1C)CCN(C)C2)C(C1CC1)C1CC1` [compound 155], for which the concentration for half-maximal inhibition (IC50) lay within 50 to 150 nM. The result for `Cc1[nH]nc2c1-c1cnc(NC(=O)[C@@H](NC(=O)c3ccnn3C(C)C)C(C3CC3)C3CC3)cc1CN(C1(C(F)(F)F)CC1)CC2` [compound 212] reads no more than 50 nM; that for `Cc1[nH]nc2c1-c1cc(F)c(NC(=O)[C@@H](NC(=O)c3ccnn3C(C)C)C(C3CC3)C3CC3)cc1CN(C(C)(C)C(F)(F)F)C(=O)C2` [compound 207], no more than 50 nM; that for `Cc1[nH]nc2c1-c1cnc(NC(=O)[C@@H](NC(=O)/C(F)=C\C(C)C)C(C3CC3)C3CC3)cc1CN(C1CC1)CC2` [compound 222], no more than 50 nM.

For the molecule `Cc1[nH]nc2c1-c1cc(F)c(NC(=O)[C@@H](NC(=O)c3cccc(-c4ccn[nH]4)c3)C(C3CC3)C3CC3)cc1COCC2` [compound 228], the IC50 is no more than 50 nM. With `C=C(F)C(=O)N[C@H](C(=O)Nc1cc2c(cn1)-c1c(n[nH]c1C)CC(=O)N(C(C)C(F)(F)F)C2)C(C1CC1)C1CC1` (mixture of isomers) [compound 257], the half-inhibitory concentration (IC50) was no more than 50 nM. For the molecule `Cc1[nH]nc2c1-c1cnc(NC(=O)[C@@H](NC(=O)c3ccnn3C(C)C)C(C3CC3)C3CC3)cc1CN(C1CC(F)(F)C1)CC2` [compound 203], the IC50 is no more than 50 nM.

On to `Cc1[nH]nc2c1-c1cc(F)c(NC(=O)[C@@H](NC(=O)c3ccnn3C3CC3)C(C3CC3)C3CC3)cc1CN(C)C(=O)C2` [compound 135], for which the IC50 is no more than 50 nM.

As to `Cc1[nH]nc2c1-c1cnc(NC(=O)[C@@H](NC(=O)/C(F)=C\C3CC3)C(C3CC3)C3CC3)cc1CN(C(C)C(F)(F)F)C(=O)C2` (mixture of isomers) [compound 255], the IC50 is no more than 50 nM.

Consider `Cc1[nH]nc2c1-c1cnc(NC(=O)[C@@H](NC(=O)c3ccnn3C(C)C)C(C3CC3)C3CC3)cc1CN(C(C)C(F)(F)F)CC2` (mixture of isomers) [compound 205], for which the IC50 was no more than 50 nM. The result for `Cc1[nH]nc2c1-c1cc(F)c(NC(=O)[C@@H](NC(=O)c3ccnn3CC(C)(C)C#N)C(C3CC3)C3CC3)cc1COCC2` [compound 77] reads 50 to 150 nM; that for `Cc1[nH]nc2c1-c1cnc(NC(=O)[C@@H](NC(=O)/C(F)=C\C(C)C)C(C3CC3)C3CC3)cc1CN(C(C)C(F)(F)F)C(=O)C2` (mixture of isomers) [compound 254], no more than 50 nM; that for `Cc1[nH]nc2c1-c1cc(F)c(NC(=O)[C@@H](NC(=O)/C(F)=C\C3CC3)C(C3CC3)C3CC3)cc1CN(C(C)C(F)(F)F)C(=O)C2` (mixture of isomers) [compound 251], no more than 50 nM.

Consider `COCCN1Cc2cc(NC(=O)[C@@H](NC(=O)c3ccnn3[C@@H](C)CO)C(C3CC3)C3CC3)c(F)cc2-c2c(n[nH]c2C)CC1=O` [compound 140], for which the IC50 was no more than 50 nM. The result for `Cc1[nH]nc2c1-c1cc(F)c(NC(=O)[C@@H](NC(=O)c3ccnn3C(C)C)C(C3CC3)C3CC3)cc1C/C=C\C2` [compound 129] reads no more than 50 nM; that for `Cc1[nH]nc2c1-c1cnc(NC(=O)[C@@H](NC(=O)c3ccnn3C(C)C)C(C3CC3)C3CC3)cc1CN(C(C)(C)C(F)(F)F)CC2` [compound 210], no more than 50 nM; that for `CCn1nccc1C(=O)N[C@H](C(=O)Nc1cc2c(cc1Cl)-c1c[nH]nc1CCOC2)C(C1CC1)C1CC1` [compound 30], 50 to 150 nM.

For the molecule `[2H]C([2H])([2H])n1nccc1C(=O)N[C@H](C(=O)Nc1cc2c(cc1F)-c1c(n[nH]c1C)CCOC2)C(C1CC1)C1CC1` [compound 18], the IC50 lay in the range of 50 to 150 nM. In the case of `Cc1[nH]nc2c1-c1cc(F)c(NC(=O)[C@@H](NC(=O)c3ccnn3C3CCC3)C(C3CC3)C3CC3)cc1COCC2` [compound 72], the IC50 is no more than 50 nM.

As for `Cc1[nH]nc2c1-c1cc(F)c(NC(=O)[C@@H](NC(=O)c3ccnn3CCCO)C(C3CC3)C3CC3)cc1COCC2` [compound 56], the IC50 is no more than 50 nM. For `C=C(F)C(=O)N[C@H](C(=O)Nc1cc2c(cn1)-c1c(n[nH]c1C)CCN(C1CC1)C2)C(C1CC1)C1CC1` [compound 224] the value was no more than 50 nM; for `Cc1[nH]nc2c1-c1cc(F)c(NC(=O)[C@@H](NC(=O)/C(F)=C\C(C)C)C(C3CC3)C3CC3)cc1CN(C(C)C(F)(F)F)C(=O)C2` (mixture of isomers) [compound 250], no more than 50 nM; for `Cc1[nH]nc2c1-c1cc(F)c(NC(=O)[C@@H](NC(=O)c3ccnn3C(C)C)C(C3CC3)C3CC3)cc1CN(CC#N)CC2` [compound 179], no more than 50 nM.

Turning to `Cc1[nH]nc2c1-c1cc(F)c(NC(=O)[C@@H](NC(=O)c3ccnn3C(C)C[S+](C)[O-])C(C3CC3)C3CC3)cc1COCC2` (single isomer, unassigned) [compound 43b], the IC50 was 50 to 150 nM. As for `Cc1[nH]nc2c1-c1cnc(NC(=O)[C@@H](NC(=O)/C(F)=C\C3CC3)C(C3CC3)C3CC3)cc1CN(C1CC1)CC2` [compound 221], the IC50 is no more than 50 nM. The result for `Cc1[nH]nc2c1-c1cc(F)c(NC(=O)[C@@H](NC(=O)c3ccnn3C(C)C)C(C3CC3)C3CC3)cc1CN(C1CCC1)CC2` [compound 177] reads no more than 50 nM; that for `Cc1[nH]nc2c1-c1cc(F)c(NC(=O)[C@@H](NC(=O)c3ccnn3[C@H]3CCOC3)C(C3CC3)C3CC3)cc1COCC2` [compound 73], 50 to 150 nM; that for `Cc1[nH]nc2c1-c1cc(F)c(NC(=O)[C@@H](NC(=O)c3ccnn3C3CCOCC3)C(C3CC3)C3CC3)cc1COCC2` [compound 74], 50 to 150 nM. `Cc1[nH]nc2c1-c1cc(F)c(NC(=O)[C@@H](NC(=O)c3ccnn3C(C)C[S+](C)[O-])C(C3CC3)C3CC3)cc1COCC2` (single isomer, unassigned) [compound 43a]: the IC50 lay in the range of 50 to 150 nM.

As for `Cc1[nH]nc2c1-c1cc(F)c(NC(=O)[C@@H](NC(=O)c3ccnn3CCCN3CCN(C)CC3)C(C3CC3)C3CC3)cc1COCC2` [compound 93], the IC50 was 50 to 150 nM. Take `Cc1[nH]nc2c1-c1cnc(NC(=O)[C@@H](NC(=O)c3ccnn3C(C)C)C(C3CC3)C3CC3)cc1CN(C(C)C(F)(F)F)C(=O)C2` (mixture of isomers) [compound 204]: the IC50 was no more than 50 nM. For `CCn1nccc1C(=O)NC(C(=O)Nc1cc2c(cc1F)-c1c(n[nH]c1C)CCOC2)C1CCC(F)(F)CC1` (single isomer, unassigned) [compound 37a] the value was no more than 50 nM.
